Results taken from patent US4801616A, “Diphenylmethanone compounds and anti-inflammatory use thereof” (Eli Lilly and Company, priority 1986, dated 1989).

Tests used:
[1] = biological target: T1, fatty acid cyclooxygenase (Homo sapiens, UniProt P23219); test: Fatty Acid Cyclooxygenase (FCO) Assay, inhibition of PGE2 formation by purified human platelet enzyme; format: biochemical; details: for IC50: human platelet microsomal enzyme, pH 8.0, 37° C.; for inhibition at 30 µg/mL: percent inhibition at 30 μg/ml
T1 construct: The solubilized fatty acid cyclooxygenase was applied to a 440 ml electrofocusing column; from tissue; host or cells: human platelets: microsomes solubilized with Triton X-100, purified by electrofocusing and G-200 Sephadex
Experimental: Fatty Acid Cyclooxygenase (FCO) Assay
Microsomes were prepared from 185 bags of human platelets (each bag containing the platelets from one pint of blood prepared using differential centrifugation procedures). The platelets from approximately 60 bags were prepared at one time. Platelet-rich plasma (500 g) was centrifuged at 10,000×g for 20 minutes, and the platelet pellet was suspended in 100 ml of 0.1M potassium phosphate buffer, pH 8.0, with a Teflon glass homogenizer and sonicated for 5.0 minutes with a Bronson Sonifier (Model 350) in a rosette flask cooled in ice water. Disrupted platelets were centrifuged 15 minutes at 10,000× g. The supernatant was centrifuged at 100,000× g for 90 minutes and the microsomal pellets were homogenized in 25 ml of 20% sucrose containing 1.0% Triton X-100 detergent. After 30 minutes at 4° C., the solubilized microsomes were centrifuged at 100,000× g for 60 minutes. The yellow supernatant was removed and stored at -70 ° C.
The solubilized fatty acid cyclooxygenase was applied to a 440 ml electrofocusing column (LKB-8012) containing 1% phisolytes (Brinkman Instruments, Westburgh, NY), pH 2-11, with the cathode at the top of the column. The enzyme was layered onto the column at the appropriate time so that its sucrose concentration was equal to that of the column gradient. This was accomplished by checking the gradient concentration periodically with a sucrose hand refractometer. Electrofocusing was carried out for 16 hours with an initial voltage of 400 V and a final voltage of 900-1,000 volts. Fractions were collected (20 ml) and assayed for PGE2 formation. Active peak fractions were pooled and concentrated by ultrafiltration (XM 100A) to a volume of 3-5 ml.
Active fractions from electrofocusing were applied to a G-200 Sephadex column (2 cm×46 cm) and eluted with 10 mM potassium phosphate buffer, pH 7.0, in 5 ml fractions. After assay, active fractions were poored and concentrated to 1.0 ml by ultrafiltration (XM 100A), and kept frozen at -70° C.
Enzyme activity was determined by assaying for PGE2 formation by preincubating the enzyme with 10 mmol/l imidazole phosphate buffer, pH 8.0, 2 mmol/l epinephrine, 2 mmol/l methemoglobin, and the test compound (30 μg/ml) in a total volume of 0.2 ml for one minute at 37° C. After preincubation, 5 mmol/l ^14 C-arachidonic acid were added and the mixture was incubated an additional 0.5 minutes at 37° C. The enzyme reaction was stopped by the addition of 2 μl of indomethacin (2 mg/ml) in alcohol.
The reaction mixture was spotted (50 μl) on a silica gel (LQ6D) plate and subjected to TLC. The solvent system consisted of chloroform-methanol-glacial acetic acid (90:5:5, v/v/v) and the relative mobilities were PGF2α =0.235, and PGE2 =0.47. The silica gel on the plate was scraped in 1 cm sections, suspended in 5 ml of the scintillation fluid [5.88 g of 2,5-diphenyloxazole and 118 mg of 1,4 -bis(5-phenyloxazol-2-yl)benzene] dissolved in 650 ml of toluene and 350 ml of Triton X-100) and the radioactivity was determined in an Isocap/300 liquid scintillation counter (Searle Analytic, Inc., Southfield, Mich.). Another 50 μl of the mixture was added to 10 ml of the Triton X-100 based scintillation fluid, and the radioactivity was determined so that the amount of radioactivity recovery from the TLC plate could be ascertained. PGE2 formation for each test compound was determined as a percent of control experiments wherein no test compound was added. Data is expressed in Table I either as the percent inhibition of formation of PGE2 at a test compound concentration of 30 μ g/ml, or as an IC50 for inhibition of PGE2 formation.

[2] = system: Collagen-Induced Arthritis; test: Collagen-Induced Arthritis Assay, hindpaw volume; format: in vivo, rat (inbred Lewis male); details: Rattus norvegicus, po, oral gavage, 5 days per week, 28 or 30 days, rats
Experimental: Collagen-Induced Arthritis Assay
Type II collagen was isolated from bovine articular cartilage by the method of Strawich and Nimni Biochemistry, 10, 3905 (1971)]. The collagen was dissolved in 0.1 M acetic acid and stored at -20° C. Type II collagen solution was diluted to 2 mg/ml concentration and emulsified thoroughly with an equal volume of incomplete Freund's adjuvant (ICFA). The emulsion containing approximately 0.5 mg of collagen was injected intradermally on day 0 to groups of 6 inbred Lewis male rats (Charles River Breeders; 170-200 g) at various sites in the dorsal area. The hindpaw volumes of each rat were measured and recorded three times a week throughout the test period to assess the inflammatory reaction. The test group animals received compounds under test as suspensions in carboxymethylcellulose vehicle, by oral gavage, 5 days per week (Monday-Friday), beginning on day 1. Control animals received vehicle without a test compound. At the end of the test (day 28 or 30), the blood of these animals was drawn by cardiac puncture and the serum anti-type II collagen antibody levels were estimated by passive hemagglutination technique, using glutaraldehyde treated sheep red cells, to which type II collagen is conjugated [Avramaes et al., Immunochemistry, 6, 67 (1969); Andriopoulos et al., Arth. Rheum. 19, 613 (1976)]. The cellular response or delayed-type hypersensitivity response to type II collagen was measured by the radiometric ear index assay [Kostiala, Immunology, 33, 561 (1977)]. In certain experiments, the bone damage occurring because of immunization with type II collagen and the effects of drugs were determined from the radiographs of the hindpaws of two or three representative animals from each group. Injections of ICFA without collagen II were employed in some rats as a negative control; these rate received only carbomethoxycellulose vehicle during the test.
The % inhibition was calculated according to the following formula: [formula] where Vt is the hindpaw volume of a compound-treated animal (test group), Vc is the hindpaw volume of a non-compound-treated animal (carbomethoxycellulose vehicle only--the control group), and Vv is the hindpaw volume of a vehicle (carbomethoxycellulose) treated animal which received ICFA with no collagen II (negative control group).

T1 sequence (P23219 24-599): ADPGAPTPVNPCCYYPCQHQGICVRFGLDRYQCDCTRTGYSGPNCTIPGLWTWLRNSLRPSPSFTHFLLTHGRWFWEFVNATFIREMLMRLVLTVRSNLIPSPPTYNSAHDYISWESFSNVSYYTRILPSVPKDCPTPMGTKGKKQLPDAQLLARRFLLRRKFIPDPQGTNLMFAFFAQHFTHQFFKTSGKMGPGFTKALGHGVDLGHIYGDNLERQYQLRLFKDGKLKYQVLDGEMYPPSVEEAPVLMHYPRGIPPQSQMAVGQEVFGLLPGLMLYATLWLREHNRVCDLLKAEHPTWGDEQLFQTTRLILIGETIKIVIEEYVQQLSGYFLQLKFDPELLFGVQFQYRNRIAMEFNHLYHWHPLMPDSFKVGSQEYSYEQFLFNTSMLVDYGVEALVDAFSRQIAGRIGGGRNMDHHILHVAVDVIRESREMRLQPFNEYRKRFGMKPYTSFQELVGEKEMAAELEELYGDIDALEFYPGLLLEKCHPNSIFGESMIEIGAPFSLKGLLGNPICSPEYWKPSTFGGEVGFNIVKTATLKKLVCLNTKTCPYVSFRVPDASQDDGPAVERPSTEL

SMILES | IC50 [1] [µM] | inhibition in vivo at 10 mg/kg [2] [%] | inhibition in vivo at 25 mg/kg [2] [%] | inhibition in vivo at 3 mg/kg [2] [%] | inhibition in vivo at 30 mg/kg [2] [%] | inhibition in vivo at 50 mg/kg [2] [%] | inhibition at 30 µg/mL [1] [%]
CCCc1c(OCCCCC#N)ccc(C(=O)c2ccccc2O)c1O [Example 11, 5-[3-Hydroxy-4-(2-hydroxybenzoyl)-2-propylphenoxy]pentanenitrile] | 84.9 | 0 | 31 | – | – | – | –
CCCc1c(OCCCCc2nnn[nH]2)ccc(C(=O)c2ccccc2O)c1O [Example 26, (2-Hydroxyphenyl)(2-hydroxy-3-propyl-4[4-(1H-tetrazol-5-yl)butoxy]phenyl)methanone] | – | – | 71 | 65 | 62 | – | 44
COc1ccccc1C(=O)c1ccc(OC)c(C)c1O [Example 9, (2-hydroxy-4-methoxy-3-methylphenyl)(2-methoxyphenyl)methanone] | – | – | – | – | – | 0 | 35
CCCc1c(OCCCCc2nnn[nH]2)ccc(C(=O)c2ccccc2OC)c1O [Example 23, (2-Hydroxy-3-propyl-4-[4-(1H-tetrazol-5-yl)butoxy]phenyl)(2-methoxyphenyl)methanone] | – | 67 | 69 | 33 | – | – | 17
CCCc1c(O)ccc(C(=O)c2ccccc2O)c1O [Example 4, (2,4-Dihydroxy-3-propylphenyl)(2hydroxyphenyl)methanone] | 1.1 | – | – | – | – | 47 | –

More lines, main results first:

IC50 [1] [µM] | SMILES | inhibition in vivo at 10 mg/kg [2] [%] | inhibition in vivo at 25 mg/kg [2] [%] | inhibition in vivo at 3 mg/kg [2] [%] | inhibition in vivo at 30 mg/kg [2] [%] | inhibition in vivo at 50 mg/kg [2] [%] | inhibition at 30 µg/mL [1] [%]
12.2 | CCCc1c(OCCCCCCCCc2nnn[nH]2)ccc(C(=O)c2ccccc2O)c1O [Example 28, (2-Hydroxyphenyl)[2-hydroxy-3-propyl-4-([8-(1H-tetrazol-5-yl)octyl]oxy)phenyl]methanone] | 48 | – | 65 | 95 | – | –
121 | CCCc1c(OCCCCC(=O)O)ccc(C(=O)c2ccccc2O)c1O [Example 30, 5-[3-Hydroxy-4-(2-hydroxybenzoyl)-2-propylphenoxy]pentanoic acid] | – | – | – | – | 24 | –
12.7 | CCCc1c(OCCCCCCc2nnn[nH]2)ccc(C(=O)c2ccccc2O)c1O [Example 25, (2-Hydroxyphenyl)[2-hydroxy-3-propyl-4-([6-(1H-tetrazol-5-yl)hexyl]oxy)phenyl]methanone] | – | 39 | – | – | – | –
